Experimental data reported in ChEMBL document CHEMBL1157539, “Thousands of chemical starting points for antimalarial lead identification” (Nature, 2010).

test system: Plasmodium falciparum; test: GSK_TCMDC: Inhibition of Plasmodium falciparum 3D7 in whole erythrocytes, using parasite LDH activity as an index of growth.; type: functional, organism-based; settings: Plasmodium falciparum, 3D7

Question: How did the XC50 turn out when `CCN1CCC(N(Cc2ccc(-c3ccc(C(F)(F)F)cc3)cc2)C(=O)Cn2nc(C)c(=O)cc2SCc2ccc(F)cc2)CC1` was run?
Answer: 1010 nM

Question: Which XC50 does the source give for `CN1CCC(N(Cc2ccc(-c3ccc(Cl)cc3)cc2)C(=O)Cn2c(CCc3cccc(F)c3F)cc(=O)c3ccccc32)CC1` here?
Answer: 865 nM

Question: Which XC50 does the source give for `Cc1cccc(C)c1C1CCN(C2CCC(NC(=O)/C=C/c3ccccc3)CC2)CC1` (stereo unspecified) here?
Answer: 581 nM

Question: With `O=c1cc(NCCCNCc2cn(S(=O)(=O)c3ccccc3)c3ccccc23)[nH]c2ccccc12` as the compound, how does the XC50 read?
Answer: 879 nM

Question: For `CC(C)C1=CC(=NOS(=O)(=O)c2ccccc2)C=C(C(C)C)C1=O`, which XC50 is on record?
Answer: 712 nM

Question: `O=c1cc(NCCC2CC=CCN2Cc2ccc(Cl)c(Cl)c2)[nH]c2ccccc12` (stereo unspecified) was tested. Which XC50 did it give?
Answer: 1730 nM

Question: For `CN1CCCC(CN2CCN(Cc3ccc(-c4ccc(-c5nc6ccccc6[nH]5)s4)cc3)CC2)C1` (stereo unspecified), which XC50 is on record?
Answer: 133 nM

Question: `Cc1cc(N[C@@H](Cc2ccccc2)C(=O)NCc2cccs2)nc(NCCc2cccnc2)n1` was tested. Which XC50 did it give?
Answer: 1010 nM

Question: How did the XC50 turn out when `FC(F)(F)c1ccc(Nc2nnnc3ccccc23)cc1` was run?
Answer: 692 nM

Question: With `CC(C)C[C@H](NC(=O)c1ccc(OCCN2CCOCC2)cc1)C(=O)N[C@H](/C=N/NC(=O)c1ccccc1)CCc1ccccc1` as the compound, how does the XC50 read?
Answer: 62.1 nM

Question: Which XC50 does the source give for `CC(NC(=O)NC1CCC(CCN2CCCc3ccccc32)CC1)c1cccc2ccccc12` (stereo unspecified) here?
Answer: 1020 nM

Question: Which XC50 does the source give for `COc1cc(C=NNc2ccnc3cc(Cl)ccc23)ccc1O` here?
Answer: 134 nM

Question: How did the XC50 turn out when `COc1ccc(NC(=O)/C=C/c2ccc(Cl)c(Cl)c2)cc1N1CCN(C)CC1` was run?
Answer: 980 nM

Question: With `COc1ccc2cc(CNCCCCCCNCc3ccc4cc(OC)ccc4c3)ccc2c1` as the compound, how does the XC50 read?
Answer: 624 nM

Question: Which XC50 does the source give for `COC(=O)c1ccc(CC(C)NCC(O)c2ccc(C(O)CNC(C)Cc3ccc(C(=O)OC)cc3)cc2)cc1` (stereo unspecified) here?
Answer: 1030 nM

Question: For `COc1ccc(C=NN=c2cc[nH]c3ccccc23)c2ccccc12`, which XC50 is on record?
Answer: 696 nM

Question: For `N#Cc1ccc(NC(=O)c2ccc(C(=O)NCCCCN3CCC(c4ccc5c(c4OCCOC4CCCCO4)CCCC5)CC3)cc2)cc1` (stereo unspecified), which XC50 is on record?
Answer: 580 nM

Question: `O=C(CC1CCCCC1)NCC(NCCCNc1cc(=O)c2ccccc2[nH]1)c1cc(Br)cc(Br)c1` (stereo unspecified) was tested. Which XC50 did it give?
Answer: 1050 nM

Question: Which XC50 does the source give for `CN1C(=O)OC[C@@H]1Cc1ccc2[nH]cc(C3=CCN(Cc4ccccc4)CC3)c2c1` here?
Answer: 417 nM

Question: How did the XC50 turn out when `CN(C)CCNC(=O)N1CCCN(c2ncnc3cc(-c4ccccc4)sc23)CC1` was run?
Answer: 786 nM

Question: Which XC50 does the source give for `Cc1cc2nc(-c3ccc(C(=O)NCCCc4ccccc4)cc3)[nH]c2cc1C` here?
Answer: 1180 nM

Question: How did the XC50 turn out when `CN(Cc1cccc(F)c1)C1CCN(c2cc(NC(=O)c3ccc(F)cc3)ccn2)C1` (stereo unspecified) was run?
Answer: 1230 nM

Question: How did the XC50 turn out when `CCCCC1=CC2C(=O)C(C(=O)OC)=CN=C2C=C1OCc1ccccc1` (stereo unspecified) was run?
Answer: 42.2 nM

Question: How did the XC50 turn out when `Cn1cncc1C(=O)Nc1ccc(-c2ccc(-c3nc4cc(C(F)(F)F)ccc4[nH]3)cc2)cc1` was run?
Answer: 560 nM

Question: For `COc1cc(C2Nc3ccc4ccccc4c3C3=C2C(=O)CC(C)(C)C3)ccc1Oc1ccc([N+](=O)[O-])cc1C#N` (stereo unspecified), which XC50 is on record?
Answer: 662 nM

Question: Which XC50 does the source give for `CCCc1ccc(S(=O)(=O)NC2CCN(c3ccnc(Nc4ccc(F)cc4)n3)C2)cc1` (stereo unspecified) here?
Answer: 1010 nM

Question: How did the XC50 turn out when `Cc1nc(C)c(CC(=O)Nc2ccc(-c3cccc(-c4nc5cc(C(F)(F)F)ccc5[nH]4)c3)cc2)s1` was run?
Answer: 925 nM

Question: With `CC1CCN(CC[C@H]2CCCN2S(=O)(=O)c2cccc(NC(=O)c3ccc(-c4ccccc4)cc3)c2)CC1` as the compound, how does the XC50 read?
Answer: 1260 nM

Question: Which XC50 does the source give for `Oc1cccc(Nc2nc(NCc3ccccc3)c3ccccc3n2)c1` here?
Answer: 41.3 nM

Question: With `O=C(CN1CCN(C(C(=O)Nc2cc(C(F)(F)F)ccc2Cl)c2ccccc2)CC1)NC1CC1` (stereo unspecified) as the compound, how does the XC50 read?
Answer: 443 nM

Question: How did the XC50 turn out when `COc1ccc(CN(C)Cc2cc(C(C)C)c(C)cc2O)cc1F` was run?
Answer: 654 nM

Question: How did the XC50 turn out when `COc1cccc2c(O)c(CNC3CCCCC3)ccc12` was run?
Answer: 630 nM

Question: How did the XC50 turn out when `N#Cc1ccc(-c2ccc(C(=O)NCCCCN3CCC(c4ccc5c(c4OCC(N)=O)CCCC5)CC3)cc2)cc1` was run?
Answer: 984 nM

Question: With `Oc1ccc(CCNCCCCCCNCCc2ccc(Br)cc2)cc1O` as the compound, how does the XC50 read?
Answer: 1020 nM

Question: For `COc1ccc(CNCCCCCCCNCc2ccc(Cl)c(Cl)c2)cc1Cl`, which XC50 is on record?
Answer: 1220 nM

Question: Which XC50 does the source give for `CCN(CC)CCCC(C)Nc1c2ccc(Cl)cc2nc2ccc(OC)cc12` (stereo unspecified) here?
Answer: 44.1 nM

Question: Which XC50 does the source give for `CCN1CCC(NCc2ccc(-c3ccc(Cl)s3)cc2)CC1` here?
Answer: 939 nM

Question: With `Cc1n[nH]c2ccc(-c3cc(OC[C@@H](N)Cc4ccccc4)cnc3-c3ccccc3OCc3cccc(F)c3)cc12` as the compound, how does the XC50 read?
Answer: 1220 nM

Question: For `CN1CCC(C(=O)N(Cc2ccc(-c3ccc(CNCCc4ccc(S(C)(=O)=O)cc4)cn3)cc2)Cc2cccc(F)c2)CC1`, which XC50 is on record?
Answer: 706 nM

Question: Which XC50 does the source give for `O=C(Cc1c[nH]cn1)Nc1cccc(-c2ccc(-c3nc4cc(C(F)(F)F)ccc4[nH]3)cc2)c1` here?
Answer: 700 nM

Question: For `CCn1c(-c2nonc2N)nc2c(-c3ccc(CO)o3)ncc(OCCCN)c21`, which XC50 is on record?
Answer: 1360 nM

Question: `CN1CCN(Cc2cccc(-c3ccc4c(Nc5ccc(Oc6ccccc6)cc5)ccnc4c3)c2)CC1` was tested. Which XC50 did it give?
Answer: 226 nM

Question: `O=C(/C=C/c1ccc(Cl)cc1)NCCCCCN1CCCN(C(=O)Nc2ccc(Cl)c(C(F)(F)F)c2)CC1` was tested. Which XC50 did it give?
Answer: 910 nM

Question: `CC[C@H]1CN(CCCC(=O)c2ccccc2)CC[C@H]1CCCc1ccnc2ccc(OC(=O)c3ccccc3)cc12` was tested. Which XC50 did it give?
Answer: 832 nM

Question: Which XC50 does the source give for `NC1(C(=O)O)Cc2ccc(Cl)cc2C1` (stereo unspecified) here?
Answer: 734 nM

Question: `CCOC(=O)CCCc1cc(NC2CCN(C)CC2)nc(Nc2ccc(OC)cc2)n1` was tested. Which XC50 did it give?
Answer: 704 nM

Question: Which XC50 does the source give for `COc1ccc(C2CC(c3cccs3)=NN2C(=O)c2ccccc2)cc1OC` (stereo unspecified) here?
Answer: 661 nM

Question: For `Cc1cc(Cl)ccc1NC(=O)NCCCCCN1CCC(c2c[nH]c3ccccc23)CC1`, which XC50 is on record?
Answer: 1010 nM

Question: How did the XC50 turn out when `Cc1cc(=NN=Cc2cccc(Cl)c2)c2cc(F)ccc2[nH]1` was run?
Answer: 759 nM

Question: With `CCc1cn2c3c(cc(C(=O)N[C@@H](Cc4cccc(F)c4)[C@H](O)CNC4CCOCC4)cc13)N(C)S(=O)(=O)CC2` as the compound, how does the XC50 read?
Answer: 68.1 nM

Question: How did the XC50 turn out when `N#Cc1ccc2c(c1)CN(CCCCNC(=O)c1ccc(-c3ccccc3)cc1)CC2` was run?
Answer: 894 nM

Question: With `CC(C)C(=O)NC(c1ccc(Cl)cc1)c1ccc2cccnc2c1O` (stereo unspecified) as the compound, how does the XC50 read?
Answer: 873 nM

Question: For `CCOc1ccc2[nH]c(C)cc(=NN=Cc3ccccc3)c2c1`, which XC50 is on record?
Answer: 785 nM

Question: Which XC50 does the source give for `COc1ccc(-c2nc(NC(=O)CS(=O)(=O)c3ccc(OC)cc3)sc2C)cc1` here?
Answer: 302 nM

Question: `COc1ccc2nc(SC(C)C(=O)c3c[nH]c4ccccc34)[nH]c2c1` (stereo unspecified) was tested. Which XC50 did it give?
Answer: 1280 nM

Question: With `COc1ccc(NC(=O)[C@H](CC(C)C)Nc2cc(C)nc(NCCc3ccccc3OC)n2)cc1` as the compound, how does the XC50 read?
Answer: 988 nM

Question: `COc1ccc(CCNCCCCCCNCCc2ccc(Cl)c(Cl)c2)cc1OC` was tested. Which XC50 did it give?
Answer: 926 nM

Question: With `Nc1c2c(nc3ccc(NC(=O)CCCc4ccccc4)cc13)CCCC2` as the compound, how does the XC50 read?
Answer: 429 nM

Question: For `COc1ccc(C(=O)N2CCC(CN3CCOC(c4ccccc4)(c4ccccc4)C3)CC2)cc1`, which XC50 is on record?
Answer: 171 nM

Question: With `CCCCCCCN1CC[C@@H](CCCc2ccnc3ccc(OC)cc23)[C@@H](CCN)C1` as the compound, how does the XC50 read?
Answer: 748 nM

Question: For `Cc1cc2c(cc1Cl)N(C(=O)Nc1cc(F)cc(-c3cncnc3)c1)CC2`, which XC50 is on record?
Answer: 377 nM

Question: For `Cc1cc(NCCC(=O)Nc2ccccc2)nc(NCCc2ccc(F)cc2)n1`, which XC50 is on record?
Answer: 1130 nM

Question: For `N#Cc1c(-c2ccccc2)cn2c1[nH]c(=O)c1ccccc12`, which XC50 is on record?
Answer: 109 nM

Question: With `O=[N+]([O-])c1cccc(NC(=S)N2CCCN(Cc3ccc(Cl)cc3Cl)CC2)c1` as the compound, how does the XC50 read?
Answer: 925 nM

Question: With `CC[C@H](C)CNC(=O)c1cccc(-c2cccc(CNCC3CNCCCO3)c2)n1` (stereo partly specified) as the compound, how does the XC50 read?
Answer: 1080 nM

Question: With `Nc1ccnc2ccc(OCCCCCCc3ccccc3)cc12` as the compound, how does the XC50 read?
Answer: 524 nM

Question: For `COc1cc(NC(=O)Nc2ccc(Br)cc2C(=O)Nc2ccc(Br)cc2)cc(OC)c1OC`, which XC50 is on record?
Answer: 761 nM

Question: `Cc1nc(-c2nc(NCCc3cnccn3)ncc2-c2ccsc2)sc1C` was tested. Which XC50 did it give?
Answer: 881 nM

Question: Which XC50 does the source give for `N#CC(c1ccc(Cl)cc1)c1ccc2c(C(F)(F)F)cc(C(F)(F)F)nc2n1` (stereo unspecified) here?
Answer: 1010 nM

Question: How did the XC50 turn out when `O=C(/C=C/c1ccc(Cl)c(Cl)c1)NCCCCCCN1CCN(C(=O)Nc2ccc(OC(F)F)cc2)CC1` was run?
Answer: 679 nM

Question: How did the XC50 turn out when `CN1CCN(c2ccnc3ccc(NC(=O)Nc4cccc5c(-c6ccncc6)cccc45)cc23)CC1` was run?
Answer: 877 nM
